Test results reported in US11034692B1 (Genentech, Inc., priority 2017, dated 2021).
Read-outs that look alike come from different tables or passages of the source.

Experiments:
HPK1 [1] = molecular target: HPK1 (Homo sapiens, UniProt Q92918); assay: HPK1 Lantha Binding Assay ("Lanth"); details: Table B2, read-out: HPK1 Ki (nM), L = Lanth
In short: (§1)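 Compounds in an 11-point 5-fold series were preincubated 1 h at 23 C with 2 nM kinase plus 2 nM Eu-anti-GST antibody. Then 15 nM Tracer222 was added for another hour, and time-resolved FRET was read at 665/615 nm. Ki values come from a Morrison tight-binding model that uses the tracer Kd.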

[2] = test system: primary human pan T cells; assay: Human T-Cell IL2 Induction Assay; type: cell-based; details: anti-CD3/anti-CD28 stimulated primary human pan T cells
Description: Human T-Cell IL2 Induction Assay
Anti-CD3 and anti-CD28 activates TCR signaling in primary human pan T cells leading to IL-2 promoter induction. Secreted IL-2 in cell culture supernatant is detected by electrochemiluminescence using a capture antibody against IL-2 and an anti-IL-2 antibody labeled with SULFO-tag.
See www.mesoscale.com for additional electrochemiluminescence technology information.
Incubate primary human pan T cells with varying concentrations of test compounds for 30 minutes in a humidified incubator at 37° C. and 5% CO2. Transfer cells to a plate pre-coated with a fixed concentration of anti-human CD3 (determined separately for each donor lot) and add soluble anti-human CD28 (final concentration=1 μg/ml). Stimulate cells in a humidified incubator at 37° C. and 5% CO2 for 4 hours. Transfer 25 μl of supernatant to a MSD single spot plate pre-coated with an anti-human IL-2 antibody. Incubate MSD plate overnight at 4° C. with gentle shaking. Wash MSD plate 4× with wash buffer. Add SULFO-tagged detection antibody at a 1:50 dilution and incubate at room temperature shaking for 2 hours. Wash MSD plate 4× with wash buffer and add 150 μl 2×MSD read buffer. Read on an MSD instrument. Normalize data to stimulated/untreated controls to calculate % activity at each concentration of compound.
Materials: • Frozen Primary Human Pan-T Cells (StemCell Technologies #70024) • anti-human CD3 (OKT3 clone) (eBioscience #16-0037-81) • anti-human CD28 (CD28.2 clone) (BD #555725) • 96-well Human IL-2 tissue culture kit (MSD #K151AHB-4)
Instrumentation: • Biomek FX for liquid handling (Beckman Coulter) • MSD SECTOR S 600 (Meso Scale Discovery)
Exemplary compounds of Formula I or Ia were tested in the human T-cell IL-2 induction assays. The % increase measured for IL-2 in cells treated by the test compounds relative to untreated cells are provided in Table B2 for certain compounds (structures as shown with the HPK1 Ki values).

HPK1 [3] = assay: HPK1 Lantha Binding Assay ("Lanth")
In short: as §1

[4] = molecular target: HPK1-FL (HPK full length, T165E S171E) (Homo sapiens (Human), UniProt Q92918, S171E/T165E); assay: HPK1-FL HTRF Enzymatic Assay ("HTRF"); type: biochemical; details: Table B2, read-out: HPK1 Ki (nM), H = HTRF
Description: HPK1-FL HTRF Enzymatic Assay (“HTRF”)
HPK-FL enzyme phosphorylates Biotin-SLP-76 substrate in the presence of ATP at 1 mM and varying concentrations of test compound. Product is detected by FRET using Eu-anti-pSLP76 Ab and SA-XL665. See www.cisbio.com/HTRF for additional HTRF technology information.
Instrumentation: • Echo555 compound dispenser • Agilent Bravo • Perkin Elmer Envision
Materials: • Assay plate: White ProxiPlate 384 F (PerkinElmer cat #6008289) • Kinase: HPK full length double mutant • Substrate: Biotin-SLP76 • ATP: 100 mM ATP • BSG: 2% BSG • DMSO: DMSO (Sigma cat #34869-100ML) • Reaction Buffer: H2O/50 mM HEPES, pH 7.5/10 mM MgCl2/2 mM TCEP/0.01% Brij-35/0.01% BSG • Detection mix: Eu-anti-pSLP76/SA-XL665 (Cisbio, #610SAXAC)
Assay Procedure Ki Determination:
To a 384 well Proxiplate with 80 nL compound or DMSO spotted on was added 4 μl/well kinase mix. The mixture was preincubated for 30 minutes and then 4 μl/well substrate mix was added. The solution was incubated for 60 min and then 4 μl/well detection mix was added. The solution was incubated for another 60 min. The plates were then loaded onto a Perkin Elmer Envision and the TR-FRET signal was measured at 615 and 665 nm. A ratio of […] was used to calculate the % activity at each concentration of compound.

[5] = Table B1-2, read-out: HPK1 Ki, L = Lanth
[6] = Table B2, read-out: HPK1 Ki (nM), L = Lanth
[7] = Table B1-1, read-out: HPK1 Ki (μM) (Lanth)

HPK1 (Homo sapiens, UniProt Q92918), sequence (Q92918 whole entry, looked up): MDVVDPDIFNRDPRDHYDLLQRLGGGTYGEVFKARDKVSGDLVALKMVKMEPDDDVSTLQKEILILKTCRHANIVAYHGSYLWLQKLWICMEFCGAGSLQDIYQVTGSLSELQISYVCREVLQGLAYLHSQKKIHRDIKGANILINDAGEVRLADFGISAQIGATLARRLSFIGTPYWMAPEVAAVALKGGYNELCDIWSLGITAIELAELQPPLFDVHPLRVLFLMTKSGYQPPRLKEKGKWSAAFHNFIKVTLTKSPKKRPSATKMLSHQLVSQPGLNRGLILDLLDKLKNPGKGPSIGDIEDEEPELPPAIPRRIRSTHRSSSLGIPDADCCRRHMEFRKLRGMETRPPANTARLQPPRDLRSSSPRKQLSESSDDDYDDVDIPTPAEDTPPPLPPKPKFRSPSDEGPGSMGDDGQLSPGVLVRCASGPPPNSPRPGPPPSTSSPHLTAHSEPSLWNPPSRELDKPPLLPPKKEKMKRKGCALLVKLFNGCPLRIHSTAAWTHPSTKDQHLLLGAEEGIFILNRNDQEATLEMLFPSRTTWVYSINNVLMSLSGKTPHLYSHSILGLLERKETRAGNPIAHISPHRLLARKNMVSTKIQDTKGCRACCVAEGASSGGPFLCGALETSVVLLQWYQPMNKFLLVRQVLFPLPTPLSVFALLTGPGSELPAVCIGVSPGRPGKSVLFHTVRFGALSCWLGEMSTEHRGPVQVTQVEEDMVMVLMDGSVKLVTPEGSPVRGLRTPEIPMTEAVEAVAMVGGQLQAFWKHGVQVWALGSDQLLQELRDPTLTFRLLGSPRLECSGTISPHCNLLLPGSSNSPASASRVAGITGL
HPK1-FL (HPK full length, T165E S171E), sequence (Q92918 whole entry T165E/S171E): as the sequence (Q92918 whole entry, looked up) above, with T165E, S171E counted along it

Ki (HPK1 [3]; [6]) [nM] | Ki (HPK1 [3]; [7]) [nM] | SMILES | % IL-2 increase relative to untreated cells ([2]; assayed concentration 0.93 μM) [%] | also measured
0.3 | – | Cc1cccc(F)c1-c1cc2cc(NC(=O)[C@@H]3[C@H](C)[C@H]3c3cnn(C)c3)ncc2c(N)n1 (single isomer, unassigned) [Compound 356] | – | Ki (HPK1 [3]; [5]): 0.3 nM; % IL-2 increase relative to untreated cells ([2]; assayed concentration 2.8 μM): 732%
0.68 | 0.68 | Cc1ccncc1-c1cc2cc(NC(=O)C3CC3)ncc2c(N)n1 [Compound 24, N-(8-amino-6-(4-methylpyridin-3-yl)-2,7-naphthyridin-3-yl)cyclopropanecarboxamide] | 513 | –
2.6 | 2.6 | CNC(=O)Nc1cc2cc(-c3cnccc3C)nc(N)c2cn1 [Compound 130, 1-[8-amino-6-(4-methyl-3-pyridyl)-2,7-naphthyridin-3-yl]-3-methyl-urea] | 274 | –

More lines, now with the values behind:

SMILES | Ki (HPK1 [3]; [6]) [nM] | Ki (HPK1 [3]; [7]) [nM] | % IL-2 increase relative to untreated cells ([2]; assayed concentration 0.93 μM) [%] | also measured
Cc1n[nH]c(C)c1-c1cc2cc(NC(=O)[C@@H]3C[C@@H]3F)ncc2c(N)n1 (racemic) [Compound 103, (±)-cis-N-(8-amino-6-{3,5-dimethyl-1H-pyrazol-4-yl)-2,7-naphthyridin-3-yl)-2-fluorocyclopropane-1-carboxamide] | – | – | – | Ki (HPK1 [1]): 3.8 nM; % IL-2 increase relative to untreated cells ([2]; assayed concentration 0.31 μM): 94%
Cc1ccncc1-c1cc2cc(NC(=O)[C@H]3[C@@H](C)[C@@H]3c3cnn(C)c3)ncc2c(N)n1 (single isomer, unassigned) [Compound 328] | 0.11 | 0.114 | 936 | –
Cc1ccncc1-c1cc2cc(Nc3cc4n(n3)CC(=O)N(C)CC4)ncc2c(N)n1 [Compound 256, 2-[[8-amino-6-(4-methylpyridin-3-yl)-2,7-naphthyridin-3-yl]amino]-6-methyl-4H,5H,6H,7H,8H-pyrazolo[1,5-d][1,4]diazepin-7-one] | – | 0.02 | – | % IL-2 increase relative to untreated cells ([2]; assayed concentration 0.31 μM): 699%; Ki [4]: 0.59 nM
Cc1ccncc1-c1cc2cc(Nc3ccc(CC#N)cn3)ncc2c(N)n1 [Compound 389, 2-[6-[[8-amino-6-(4-methyl-3-pyridyl)-2,7-naphthyridin-3-yl]amino]-3-pyridyl]acetonitrile] | 0.033 | – | – | Ki (HPK1 [3]; [5]): 0.033 nM; % IL-2 increase relative to untreated cells ([2]; assayed concentration 0.10 μM): 265%
Cc1cc(-c2ncco2)ccc1-c1cc2cc(NC(=O)[C@H]3C[C@@H]3c3cnn(C)c3)ncc2c(N)n1 (single isomer, unassigned) [Compound 379] | – | – | – | % IL-2 increase relative to untreated cells ([2]; assayed concentration 2.8 μM): 547%
Cc1ccncc1-c1cc2cc(Nc3cnn([C@H](C)C#N)c3)ncc2c(N)n1 (single isomer, unassigned) [Compound 273] | – | 0.0675 | 830 | Ki (HPK1 [1]): 0.06 nM
